We go through 13 compounds from patent publication US20240366612A1, “COMPOUNDS AND METHODS FOR MODULATING NUCLEIC ACID SPLICING” (REMIX THERAPEUTICS INC., priority 2021, published 2024).

Where a name gives a salt, the structure may show the parent alone.

Series [1] concerns HiBiT-tagged Target C protein in K562 cells. Briefly: HiBiT protein abundance assay, Target C. Format: cell-based, human. Particulars: HiBiT-modified K562 cells, 24 hours, luminescence. The protocol: (§1) Compounds described herein were used to screen for effects on quantitative protein abundance using a HiBit assay system (Promega). Quantitative protein abundance was determined by measuring the protein levels of HiBit-tagged protein targets expressed in cell culture via luminescence using the Nano-Glo HiBiT Lytic Detection System, which uses a split complementation assay format to reconstitute NanoBiT enzyme to generate a luminescent signal. A protein abundance assay was developed such that endogenous protein targets could be modified with the HiBiT peptide tag and their abundance could be assessed after compound treatment. Briefly, K562 cell lines containing a HiBiT-modification were treated with various compounds described herein (e.g., compounds of Formulas (I), (II), or (III)). After treatment for 24 hours, the protein abundance of a specific target was determined by measuring luminescence.
(§2) • Promega Nano-Glo HiBiT Lytic Detection System (cat #N3030) • Corning 384-well TC-treated microplates (cat #3570) • Synthego Engineered Cells Knock-In Clones
(§3) Cells were maintained in IMDM with 10% FBS. Before the assay, cells were diluted with […] growth media (IMDM+1% FBS media) and were seeded in a 384-well plate at a density of 10000 cells/well (for each cell line listed in Table 5). Each compound was prepared as a 10-point 3-fold serial dilution in DMSO with the top dose at a final concentration of 10 μM in the well. Unmodified K562 cells were added at the previously specified density with DMSO to serve as an assay baseline and positive control (PC) and DMSO only with the respective modified cell lines was added to the negative control (NC) columns. Final DMSO concentration was kept at or below 0.25%. Treated cell plates were placed in an incubator at 37° C. with 5% CO2 for 24 hours. After 24 hours, 25 μL of Complete HiBit Lytic reagent was added to each well at room temperature (e.g. one plate requiring 10 mL Lytic Buffer, 100 μL LgBiT Protein, 200 μL Lytic Substrate), shaken for 5 minutes at 600 RPM, then left to sit for 10 minutes for signal to stabilize before reading on a Spark Cyto plate reader (Tecan) with a 500 ms measurement time.
(§4) To determine compound effects on protein abundance of each target in Table 5, the percent response for each respective cell line was calculated at each compound concentration as follows:
(§5) For the normalized response at each concentration, a four-parameter logistical regression was fit to the data and the response was interpolated at the 50% value to determine a concentration for protein abundance at 50% (IC50) the untreated control.
(In general: With HiBiT, luminescence reflects the tagged protein that the partner subunit can reach.)

Series [2] can be described thus: Cell Titer Glo 2.0 cell viability assay. Particulars: human, K562 cells. A general note: Cellular ATP, detected with luciferase, serves as a proxy for viable cell number.
The next series deals with MYB CJ mRNA. The series is described as follows: Gene panel canonical junction qPCR assay, MYB. The format is cell-based. Particulars: Homo sapiens, larger gene panel, read-out: MYB IC50 (decrease in CJ mRNA levels). The protocol: Compounds described herein were used to modulate RNA transcript abundance in cells. The expression of a target mRNA was measured by detecting the formation of an exon-exon junction in the canonical transcript (CJ). A compound mediated exon-inclusion event was detected by observing an increase in formation of a new junction with an alternative exon (AJ). Real-time qPCR assays were used to detect these splicing switches and interrogate the potency of various compounds towards different target genes. A high-throughput real time quantitative PCR (RT-qPCR) assay was developed to measure these two isoforms of the mRNA (CJ and AJ) for exemplary genes, such as HTT, SMN2, and MYB, together with a control housekeeping gene, GAPDH or GUSB or PPIA, used for normalization. Briefly, the A673 or K562 cell line was treated with various compounds described herein (e.g., compounds of Formula (I)). After treatment, the levels of the HTT, MYB, or SMN2 mRNA targets were determined from each sample of cell lysate by cDNA synthesis followed by qPCR.
The A673 cell line was cultured in DMEM with 10% FBS. Cells were diluted with full growth media and plated in a 96-well plate (15,000 cells in 100 ul media per well). The plate was incubated at 37° C. with 5% CO2 for 24 hours to allow cells to adhere. An 11-point 3-fold serial dilution of the compounds was made in DMSO then diluted in media in an intermediate plate. Compounds were transferred from the intermediate plate to the cell plate with the top dose at a final concentration of 10 uM in the well. Final DMSO concentration was kept at or below 0.25%. The cell plate was returned to the incubator at 37° C. with 5% CO2 for an additional 24 hours.
The K562 cell line was cultured in IMDM with 10% FBS. For K562, cells were diluted with full growth media and plated in either a 96-well plate (50,000 cells in 50 uL media per well) or a 384-well plate (8,000-40,000 cells in 45 uL media per well). An 11-point 3-fold serial dilution of the compounds were made in DMSO then diluted in media in an intermediate plate. Compound was transferred from the intermediate plate to the cell plate with the top dose at a final concentration of 10 uM in the well. Final DMSO concentration was kept at or below 0.25%. Final volume was 100 uL for 96-well plate and 50 uL for 384-well plate. The cell plate was then placed in an incubator at 37° C. with 5% CO2 for 24 hours.
The data analysis was performed by first determining the ΔCt vs the housekeeper gene. This ΔCt was then normalized against the DMSO control (ΔΔCt) and converted to RQ (relative quantification) using the 2^(−ΔΔCt) equation. The RQ were then converted to a percentage response by arbitrarily setting an assay window of 3.5 and 4.0 ΔCt for HTT-CJ and MYB-CJ respectively and an assay window of 9 and 3 ΔCt for HTT-AJ and MYB-AJ in 96 well format (50,000 K562 cells/well and 15,000 A673 cells per well) and an assay window of 3 and 4 ΔCt for HTT-CJ and MYB-CJ respectively and an assay window of 5 and 3 ΔCt for HTT-AJ and MYB-AJ respectively in 384 well format (8,000 K562 cells/well example). […] The percentage response was then fitted to the 4 parametric logistic equation to evaluate the concentration dependence of compound treatment. The increase in AJ mRNA is reported as AC50 (compound concentration having […] in AJ increase) while the decrease in CJ mRNA levels is reported as IC50 (compound concentration having 50% response in CJ decrease).
Additional studies were carried out for a larger panel of genes using the protocol provided above. The junction between flanking upstream and downstream exons was used to design canonical junction qPCR assays. At least one of the forward primer, reverse primer or the CY5-labeled 5′ nuclease probe (with 3′ quencher such as ZEN/Iowa Black FQ) was designed to overlap with the exon junction to capture the CJ mRNA transcript. […]
(In general: In qPCR the cycle at which signal appears reflects the starting amount.)

The test system of series [3] is HiBiT-tagged HTT protein in K562 cells. The series is described as follows: HiBiT protein abundance assay, HTT. Format: cell-based, human. Particulars: HiBiT-modified K562 cells, 24 hours, luminescence. The protocol:
as §1, §2, §3, §4, §5

Broadly, the IC50 is the point on the concentration scale where inhibition reaches its midpoint. Usually GI50 stands for the concentration that inhibits growth by half. For `Cc1cn2cc(-c3cc4ncn([C@H]5CCNC[C@@H]5F)c(=O)c4s3)cc(F)c2n1` (relative stereo) [Compound 272, trans-6-{8-fluoro-2-methylimidazo[1,2-a]pyridin-6-yl}-3-[3-fluoropiperidin-4-yl]thieno[3,2-d]pyrimidin-4-one], the IC50 (in series [1]; in the series on MYB CJ mRNA; in series [3]) was 1000 to 10000 nM each time. Also, the GI50 at 72 h in series [2] was above 10000 nM.

In the case of `Cc1cn2cc(-c3cc4ncn([C@H]5CCNC[C@H]5F)c(=O)c4s3)cc(F)c2n1` (relative stereo) [Compound 273, cis-6-{8-fluoro-2-methylimidazo[1,2-a]pyridin-6-yl}-3-[3-fluoropiperidin-4-yl]thieno[3,2-d]pyrimidin-4-one], the IC50 was 1000 to 10000 nM in series [1], 100 to 1000 nM in the series with MYB CJ mRNA and 1000 to 10000 nM in series [3]. The GI50 at 72 h in series [2] lay within 1000 to 10000 nM.

For `Cc1cn2cc(-c3cc4ncn([C@H]5CCN[C@H](C)C5)c(=O)c4s3)cc(F)c2n1` (relative stereo) [Compound 277, 6-{8-fluoro-2-methylimidazo[1,2-a]pyridin-6-yl}-3-[(trans)-2-methylpiperidin-4-yl]thieno[3,2-d]pyrimidin-4-one], the IC50 (in series [1]; in the series on MYB CJ mRNA; in series [3]) was 100 to 1000 nM each time. Moreover, the GI50 at 72 h in series [2] lay within 100 to 1000 nM.

As to `Cc1cn2cc(-c3cc4ncn([C@H]5CCN[C@@H](C)C5)c(=O)c4s3)cc(F)c2n1` (relative stereo) [Compound 278, 6-{8-fluoro-2-methylimidazo[1,2-a]pyridin-6-yl}-3-[(cis)-2-methylpiperidin-4-yl]thieno[3,2-d]pyrimidin-4-one hydrochloride], the 50% inhibitory concentration (IC50) (in series [1]; in the series on MYB CJ mRNA; in series [3]) was 100 to 1000 nM throughout. In series [2], this compound gave a GI50 at 72 h of 100 to 1000 nM.

Consider `Cc1cc(-c2cc(=O)n3cc(N4CCN(C)CC4)sc3n2)cc2cn(C)nc12` [Compound 109, 7-(2,7-dimethyl-2H-indazol-5-yl)-2-(4-methylpiperazin-1-yl)-5H-thiazolo[3,2-a]pyrimidin-5-one], for which the IC50 (in series [1]; in the series with MYB CJ mRNA; in series [3]) was above 10000 nM in each case. Also, the GI50 at 72 h in series [2] was 1000 to 10000 nM.

In the case of `Cc1cc(-c2cc(=O)n3nc(N4CCN(C)CC4)sc3n2)cc2cn(C)nc12` [Compound 157, 7-(2,7-dimethyl-2H-indazol-5-yl)-2-(4-methylpiperazin-1-yl)-5H-[1,3,4]thiadiazolo[3,2-a]pyrimidin-5-one], the IC50 (in series [1]; in the series with MYB CJ mRNA; in series [3]) was above 10000 nM each time. Further, the GI50 at 72 h in series [2] is above 10000 nM.

As to `Cc1cn2cc(-c3cc(=O)n4nc(N5CCN(C)CC5)sc4n3)cc(F)c2n1` [Compound 159, 7-(8-fluoro-2-methylimidazo[1,2-a]pyridin-6-yl)-2-(4-methylpiperazin-1-yl)-5H-[1,3,4]thiadiazolo[3,2-a]pyrimidin-5-one], the IC50 (in series [1]; in the series with MYB CJ mRNA; in series [3]) was 1000 to 10000 nM in each case. This compound also yielded a GI50 at 72 h in series [2] of 1000 to 10000 nM.

Regarding `Cc1cn2nc(-c3cc(=O)n4cc(N(C)C5CC(C)(C)NC(C)(C)C5)sc4n3)cc(C)c2n1` [Compound 205, 7-(2,8-dimethylimidazo[1,2-b]pyridazin-6-yl)-2-(methyl(2,2,6,6-tetramethylpiperidin-4-yl)amino)-5H-thiazolo[3,2-a]pyrimidin-5-one], the IC50 (in series [1]; in the series on MYB CJ mRNA; in series [3]) was 1000 to 10000 nM each time.

Regarding `Cc1cc(-c2nn3c(=O)cc(N4CCNCC4)nc3s2)cc2cn(C)nc12` [Compound 206, 2-(2,7-dimethyl-2H-indazol-5-yl)-7-(piperazin-1-yl)-5H-[1,3,4]thiadiazolo[3,2-a]pyrimidin-5-one], the IC50 (in series [1]; in the series on MYB CJ mRNA; in series [3]) was 1000 to 10000 nM in each case. In addition, the GI50 at 72 h in series [2] fell in the range of 1000 to 10000 nM.

Take `Cc1cn2cc(-c3cc(=O)n4cc(N5CCNC6(CC6)C5)sc4n3)cc(F)c2n1` [Compound 207, 7-(8-fluoro-2-methylimidazo[1,2-a]pyridin-6-yl)-2-(4,7-diazaspiro[2.5]octan-7-yl)-5H-thiazolo[3,2-a]pyrimidin-5-one]: the IC50 in series [1] is above 10000 nM; with MYB CJ mRNA, 1000 to 10000 nM; in series [3], above 10000 nM. This compound yielded a GI50 at 72 h in series [2] above 10000 nM.

In the case of `Cc1cn2cc(-c3cn4c(=O)cc(N5CCNC6(CC6)C5)nc4s3)cc(F)c2n1` [Compound 208, 2-(8-fluoro-2-methylimidazo[1,2-a]pyridin-6-yl)-7-(4,7-diazaspiro[2.5]octan-7-yl)-5H-thiazolo[3,2-a]pyrimidin-5-one], the IC50 (in series [1]; in the series on MYB CJ mRNA; in series [3]) was 1000 to 10000 nM throughout. Moreover, in series [2], the GI50 at 72 h was in the range of 1000 to 10000 nM.

Turning to `Cc1cn2cc(-c3nn4c(=O)cc(N(C)C5CC(C)(C)NC(C)(C)C5)nc4s3)cc(F)c2n1` [Compound 215, 2-(8-fluoro-2-methylimidazo[1,2-a]pyridin-6-yl)-7-(methyl(2,2,6,6-tetramethylpiperidin-4-yl)amino)-5H-[1,3,4]thiadiazolo[3,2-a]pyrimidin-5-one], the IC50 in series [1] was above 10000 nM; in the series with MYB CJ mRNA, 1000 to 10000 nM; in series [3], above 10000 nM.

For `Cc1cn2cc(-n3cnc4nc(N(C)C5CC(C)(C)NC(C)(C)C5)sc4c3=O)cc(F)c2n1` [Compound 227, 6-(8-fluoro-2-methylimidazo[1,2-a]pyridin-6-yl)-2-(methyl(2,2,6,6-tetramethylpiperidin-4-yl)amino)thiazolo[4,5-d]pyrimidin-7(6H)-one, formate], the IC50 (in series [1]; in the series on MYB CJ mRNA; in series [3]) was above 10000 nM in each case.
